The values that follow are results of earlier work, collected in patent publication US20060147566A1, “Use of physiologically active fatty acids” (priority 2004, published 2006).

The test system of the data set is pruritus. Particulars: known from clinical studies; acyl salicylate prior art.

As for `CC(=O)Oc1ccccc1C(=O)O` [aspirin], the “significance for the treatment of pruritus” value is “about 50%”.
